Measured values: ChEMBL document CHEMBL1811889, “Quinoline-4-methyl esters as human nonpancreatic secretory phospholipase A₂ inhibitors” (Bioorg Med Chem, 2011)

Molecular target: T1, Phospholipase A2, membrane associated (Homo sapiens, UniProt P14555)
T1 sequence (P14555 whole entry): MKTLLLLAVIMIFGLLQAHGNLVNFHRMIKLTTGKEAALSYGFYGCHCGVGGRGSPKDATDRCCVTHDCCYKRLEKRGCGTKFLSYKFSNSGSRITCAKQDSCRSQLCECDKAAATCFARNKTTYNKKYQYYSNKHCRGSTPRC
Assay: Inhibition of human non-pancreatic sPLA2 using 1,2-dimyristoyl-sn-glycero-3-phosphocholine substrate after 5 mins by continuous fluorescence assay; call rule not given here

Row | Compound | IC50 (read-out: IC50) [µM] | IC50
1 | COC(=O)c1cc(CCc2ccccc2)nc2ccc(F)cc12 | 12 | –
2 | COC(=O)c1c2c(nc3ccc(F)cc13)CCCC2 | – | Not Active
3 | COc1ccc2c(c1)c(CC(N)=O)c(C)n2Cc1ccccc1 | 1 | –
4 | COC(=O)c1cc(CCc2ccccc2)nc2ccc(Cl)cc12 | 1.8 | –
5 | COC(=O)c1c(-c2ccccc2)c(C)nc2ccc(Cl)cc12 | 2.9 | –
6 | COC(=O)c1cc(Cc2ccccc2OC)nc2ccc(F)cc12 | 2.3 | –
7 | COC(=O)c1cc(-c2ccccc2)nc2ccc(OC)cc12 | 2 | –
8 | CCCCOc1ccc(-c2cc(C(=O)OC)c3ccccc3n2)cc1 | 44 | –
9 | COC(=O)c1c(Cc2ccccc2)c(C)nc2ccc(Cl)cc12 | 2.8 | –
10 | CCCOc1ccc(-c2cc(C(=O)OC)c3cc(OC)ccc3n2)cc1 | 27 | –
11 | CCCCCCOc1ccc(-c2cc(C(=O)OC)c3cc(OC)ccc3n2)cc1 | – | Not Active
12 | CCCCCOc1ccc(-c2cc(C(=O)OC)c3cc(OC)ccc3n2)cc1 | – | Not Active
13 | COC(=O)c1cc(CCc2ccccc2)nc2ccc(OC)cc12 | 1.5 | –
14 | COC(=O)c1c(Cc2ccccc2)c(C)nc2ccc(OC)cc12 | 34 | –
15 | COC(=O)c1c2c(nc3ccc(Cl)cc13)CCCC2 | – | Not Active
16 | COC(=O)c1cc(-c2ccc(OC)cc2)nc2ccc(OC)cc12 | 15 | –
17 | COC(=O)c1c(Cc2ccccc2)c(C)nc2ccc(F)cc12 | 16 | –
18 | COC(=O)c1cc(-c2ccc(OC)cc2)nc2ccc(F)cc12 | 6 | –
19 | COC(=O)c1c2c(nc3ccccc13)CCCC2 | – | Not Active
20 | COC(=O)c1cc(-c2ccc(OC)cc2)nc2ccc(Cl)cc12 | 8.1 | –
21 | CCCCOc1ccc(-c2cc(C(=O)OC)c3cc(OC)ccc3n2)cc1 | 57 | –
